Where two headings read alike, the source gives them in different places.
Tests used:
[1] = Serum concentrations and bioavailability after LMP administration; format: in vivo
Adrenergic α2C = target: T1, Adrenergic α2C (Homo sapiens, UniProt P18825); test: Receptor binding, Adrenergic α2C
T1 sequence (P18825 1-462): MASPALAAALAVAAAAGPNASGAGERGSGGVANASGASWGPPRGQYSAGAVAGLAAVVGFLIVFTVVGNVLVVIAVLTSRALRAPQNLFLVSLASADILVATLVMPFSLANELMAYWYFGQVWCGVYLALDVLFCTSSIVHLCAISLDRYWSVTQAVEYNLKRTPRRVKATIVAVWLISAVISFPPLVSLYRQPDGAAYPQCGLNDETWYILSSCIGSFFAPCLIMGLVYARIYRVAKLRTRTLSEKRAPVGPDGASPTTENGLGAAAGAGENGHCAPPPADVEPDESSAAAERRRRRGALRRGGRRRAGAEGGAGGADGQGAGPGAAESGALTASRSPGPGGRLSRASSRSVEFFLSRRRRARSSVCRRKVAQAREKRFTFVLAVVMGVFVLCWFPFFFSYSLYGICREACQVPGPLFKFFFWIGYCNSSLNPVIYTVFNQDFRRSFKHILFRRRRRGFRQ
Protocol: (§1) Receptor-ligand binding studies were performed as known to one skilled in the art. Compounds evaluated were LMP, the parent compound, the NDM LMP metabolite of LMP, and the sulfoxide metabolite of LMP. These studies verified receptor binding and affinity by the parent compound, as well as identified other potential receptors for the parent compound and its metabolites, and identified and verified receptors and receptor affinity for the metabolites.
(§2) Dopamine receptor affinity included binding to D1, D2, D3, D4, and D5 receptors. Serotonin receptor affinity included binding to 5-HT1A, 5-HT2A, 5-HT2B, 5-HT2, 5-HT5A, 5-HT6, and 5-HT7 receptors. Alpha adrenergic receptor affinity included binding to α1A, α1B, α1C, α2A, α2B, and α2C receptors. Muscarinic receptor affinity included binding to M1, M2, M3, M4, and M5 receptors. Binding to the histamine H1 receptor, the calcium ion channel receptor, and the sodium ion channel receptor were also evaluated. In each of the tables, the following abbreviations are used: LMP indicates the parent compound levomepromazine. NDM LMP indicates the N-desmethyl (N-desmethyl) metabolite. Sulfoxide indicates the sulfoxide metabolite. […] Ki (the inhibition constants of binding) indicate binding affinity.

α2 adrenergic receptors = test: Receptor affinity summary, α2 adrenergic receptors; format: binding; parameters: key to Relative Affinity: ≧ indicates greater or equal affinity; = indicates about the same affinity; − indicates no affinity; details: for Relative Affinity: α2-Adrenergic
Protocol: as §1, §2

Sodium Channel = test: Receptor binding, Sodium Channel; parameters: key to Relative Affinity: ≧ indicates greater or equal affinity; = indicates about the same affinity; − indicates no affinity
Protocol: as §1, §2

Dopamine D4.2 = target: T2, Dopamine D4.2 (Homo sapiens, UniProt P21917, DEL271-302); test: Receptor binding, Dopamine D4.2
T2 sequence (P21917 with tags, fused parts or gaps DEL271-302): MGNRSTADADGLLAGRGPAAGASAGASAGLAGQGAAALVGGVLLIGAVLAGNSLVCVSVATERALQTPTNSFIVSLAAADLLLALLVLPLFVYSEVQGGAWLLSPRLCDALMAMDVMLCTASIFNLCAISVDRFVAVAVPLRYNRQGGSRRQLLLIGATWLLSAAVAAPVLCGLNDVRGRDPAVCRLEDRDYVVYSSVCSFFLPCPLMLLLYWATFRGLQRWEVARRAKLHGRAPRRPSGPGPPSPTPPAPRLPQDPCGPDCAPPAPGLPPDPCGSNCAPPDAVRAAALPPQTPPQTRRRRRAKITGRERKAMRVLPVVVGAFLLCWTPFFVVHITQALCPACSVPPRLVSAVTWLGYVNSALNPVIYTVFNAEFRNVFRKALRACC
Protocol: as §1, §2

dopamine receptors = test: Receptor affinity summary, dopamine receptors; format: binding; parameters: key to Relative Affinity: ≧ indicates greater or equal affinity; = indicates about the same affinity; − indicates no affinity; details: for Relative Affinity: Dopamine
Protocol: as §1, §2

[2] = test system: human colon carcinoma cell line (CACO-2 Model); test: Intestinal absorption assay (CACO-2 Model); format: in vitro ADME
serotonin receptors = test: Receptor affinity summary, serotonin receptors; format: binding; parameters: key to Relative Affinity: ≧ indicates greater or equal affinity; = indicates about the same affinity; − indicates no affinity; details: for Relative Affinity: Serotonin
Protocol: as §1, §2

[3] = test system: Primary human hepatocytes; test: In vitro metabolism in primary human hepatocytes; format: in vitro ADME
Serum protein binding = format: in vitro ADME
P-glycoprotein (p-gp) = target: T3, P-glycoprotein (p-gp) (Homo sapiens, UniProt P08183); test: P-glycoprotein efflux in CACO-2 Model; format: in vitro ADME
T3 construct: using a human colon carcinoma cell line (CACO-2 Model); endogenous in cells; host or cells: CACO-2 (human colon carcinoma cell line)
T3 sequence (P08183 whole entry): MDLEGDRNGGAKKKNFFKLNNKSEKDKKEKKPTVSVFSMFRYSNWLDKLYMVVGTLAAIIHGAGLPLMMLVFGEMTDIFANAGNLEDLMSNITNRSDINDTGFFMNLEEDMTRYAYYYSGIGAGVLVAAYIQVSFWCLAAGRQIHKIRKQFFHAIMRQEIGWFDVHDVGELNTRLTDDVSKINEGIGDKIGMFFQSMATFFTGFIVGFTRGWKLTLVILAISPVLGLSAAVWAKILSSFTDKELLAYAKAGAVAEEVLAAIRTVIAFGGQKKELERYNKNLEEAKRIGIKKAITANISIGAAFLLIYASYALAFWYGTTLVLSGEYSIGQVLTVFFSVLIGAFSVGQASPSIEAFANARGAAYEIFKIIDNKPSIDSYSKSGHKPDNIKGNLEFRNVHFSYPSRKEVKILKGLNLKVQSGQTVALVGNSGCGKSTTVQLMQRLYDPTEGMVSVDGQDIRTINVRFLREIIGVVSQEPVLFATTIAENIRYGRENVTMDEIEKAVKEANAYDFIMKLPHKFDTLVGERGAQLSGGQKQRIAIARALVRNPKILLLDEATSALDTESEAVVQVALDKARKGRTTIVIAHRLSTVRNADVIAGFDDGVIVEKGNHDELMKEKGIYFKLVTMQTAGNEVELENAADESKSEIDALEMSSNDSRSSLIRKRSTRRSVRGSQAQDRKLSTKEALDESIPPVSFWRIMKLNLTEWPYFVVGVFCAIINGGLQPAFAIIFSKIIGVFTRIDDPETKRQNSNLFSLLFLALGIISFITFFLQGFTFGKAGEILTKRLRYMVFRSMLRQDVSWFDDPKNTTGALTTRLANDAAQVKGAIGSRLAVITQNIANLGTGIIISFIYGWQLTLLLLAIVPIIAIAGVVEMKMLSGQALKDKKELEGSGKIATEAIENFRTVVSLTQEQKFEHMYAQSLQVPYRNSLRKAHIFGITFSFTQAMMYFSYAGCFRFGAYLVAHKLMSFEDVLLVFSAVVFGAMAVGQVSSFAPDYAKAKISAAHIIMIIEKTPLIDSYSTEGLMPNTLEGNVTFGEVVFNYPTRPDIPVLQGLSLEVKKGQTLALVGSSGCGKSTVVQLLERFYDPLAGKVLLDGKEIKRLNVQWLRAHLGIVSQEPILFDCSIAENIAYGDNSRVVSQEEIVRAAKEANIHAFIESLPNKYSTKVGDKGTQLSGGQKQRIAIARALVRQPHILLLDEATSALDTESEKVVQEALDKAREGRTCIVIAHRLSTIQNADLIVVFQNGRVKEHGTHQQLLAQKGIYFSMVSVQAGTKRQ

Dopamine D1 = Dopamine D1 (Homo sapiens, UniProt P21728); test: Receptor binding, Dopamine D1
Sequence of Dopamine D1 (P21728 whole entry): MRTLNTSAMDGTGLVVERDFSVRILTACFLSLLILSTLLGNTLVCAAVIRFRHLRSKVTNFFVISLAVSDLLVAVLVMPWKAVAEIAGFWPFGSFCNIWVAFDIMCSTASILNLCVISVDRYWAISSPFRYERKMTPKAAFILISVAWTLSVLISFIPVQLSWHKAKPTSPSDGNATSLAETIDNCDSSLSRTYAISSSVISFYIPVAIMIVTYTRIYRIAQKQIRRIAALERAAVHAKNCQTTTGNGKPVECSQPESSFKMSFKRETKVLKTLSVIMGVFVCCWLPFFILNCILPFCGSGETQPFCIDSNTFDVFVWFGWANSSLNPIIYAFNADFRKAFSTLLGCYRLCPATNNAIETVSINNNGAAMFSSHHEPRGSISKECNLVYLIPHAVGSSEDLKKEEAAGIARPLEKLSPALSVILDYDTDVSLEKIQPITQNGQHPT
Protocol: Receptor-ligand binding studies were performed as known to one skilled in the art.
as §2, with “In each of the tables, the following abbreviations are used: LMP indicates the parent compound levomepromazine. NDM LMP indicates the N-desmethyl (N-desmethyl) metabolite.” left out

Adrenergic α2A = Adrenergic α2A (Homo sapiens, UniProt P08913); test: Receptor binding, Adrenergic α2A
Sequence of Adrenergic α2A (P08913 whole entry): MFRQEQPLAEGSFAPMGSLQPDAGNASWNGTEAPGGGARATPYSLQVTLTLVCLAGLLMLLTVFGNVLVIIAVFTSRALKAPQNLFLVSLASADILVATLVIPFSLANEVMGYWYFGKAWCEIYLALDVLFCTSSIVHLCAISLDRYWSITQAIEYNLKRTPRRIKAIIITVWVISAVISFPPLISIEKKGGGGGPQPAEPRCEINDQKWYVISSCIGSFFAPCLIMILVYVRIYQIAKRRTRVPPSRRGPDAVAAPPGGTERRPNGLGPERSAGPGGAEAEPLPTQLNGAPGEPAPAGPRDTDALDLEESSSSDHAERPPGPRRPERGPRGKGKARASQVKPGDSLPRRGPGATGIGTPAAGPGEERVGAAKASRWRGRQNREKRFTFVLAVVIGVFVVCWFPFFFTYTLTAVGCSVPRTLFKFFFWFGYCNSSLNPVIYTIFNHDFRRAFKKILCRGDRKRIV
Protocol: as §1, §2

Adrenergic α1C = Adrenergic α1C (Homo sapiens, UniProt P35348); test: Receptor binding, Adrenergic α1C
Sequence of Adrenergic α1C (P35348 whole entry): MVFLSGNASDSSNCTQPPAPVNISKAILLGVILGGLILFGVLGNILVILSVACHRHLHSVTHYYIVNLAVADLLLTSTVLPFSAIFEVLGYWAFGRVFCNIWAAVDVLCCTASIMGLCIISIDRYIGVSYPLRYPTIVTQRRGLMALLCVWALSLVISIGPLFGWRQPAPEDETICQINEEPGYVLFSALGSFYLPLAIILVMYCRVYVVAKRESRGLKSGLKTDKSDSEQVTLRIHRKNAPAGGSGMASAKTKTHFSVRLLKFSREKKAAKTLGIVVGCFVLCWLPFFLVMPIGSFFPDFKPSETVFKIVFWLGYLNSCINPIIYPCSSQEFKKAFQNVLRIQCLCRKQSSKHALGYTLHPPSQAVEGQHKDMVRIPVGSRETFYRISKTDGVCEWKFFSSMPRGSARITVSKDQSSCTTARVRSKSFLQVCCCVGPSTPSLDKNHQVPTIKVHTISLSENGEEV
Protocol: Receptor-ligand binding studies were performed as known to one skilled in the art. […] Binding to the histamine H1 receptor, the calcium ion channel receptor, and the sodium ion channel receptor were also evaluated. […] Sulfoxide indicates the sulfoxide metabolite. […] Ki (the inhibition constants of binding) indicate binding affinity.

| Compound | Ki (Adrenergic α2C) [µM] | binding affinity to α2 adrenergic receptors (in words) (α2 adrenergic receptors) | Ki (Sodium Channel; read-out: Ki) [µM] | Ki (Dopamine D4.2) [µM] | Relative Affinity (dopamine receptors) | Relative Affinity (serotonin receptors) | Ki (Dopamine D1) [µM] | Ki (Adrenergic α2A) [µM] | Relative Affinity (α2 adrenergic receptors) | Relative Affinity (Sodium Channel) | also measured |
| --- | --- | --- | --- | --- | --- | --- | --- | --- | --- | --- | --- |
| COc1ccc2c(c1)N(C[C@H](C)CN(C)C)c1ccccc1S2 [LMP, Levomepromazine] | 0.077 | demonstrated binding | 1.09 | 0.769 |  |  |  |  |  |  | bioavailability ([1]; in vivo, 25 mg oral formulation compared to 25 mg intravenous dose, read-out: absolute bioavailability): ~20% |
| CNCC(C)CN1c2ccccc2Sc2ccc(OC)cc21 (stereo not drawn) [NDM LMP, R(+) 2-methoxy-10-2-methyl-3-monomethylaminopropyl phenothiazine] | 0.074 | demonstrated binding | 0.643 | 3.11 | LMP = NDM LMP | LMP = NDM LMP | 0.099 | 0.239 | LMP = NDM LMP | NDM LMP > LMP | apical to basolateral permeability coefficient relative to parent LMP [2]: 1.5 fold; gut wall (enterocyte) metabolism relative to parent LMP [2]: occurs to a lower extent; percent recovered through the system relative to parent LMP [2]: 1.5-2.0 fold; Phase I biotransformation [3]: metabolized to only one putative primary amine metabolite; Phase II biotransformation (conjugation) [3]: did not appear to undergo any Phase II biotransformation; metabolic stability relative to LMP [3]: much more metabolically stable than its LMP parent compound; sulfoxide metabolite formation [3]: no detectable sulfoxide metabolites were formed; fraction unbound (Serum protein binding; serum): 0.01; transport by P-glycoprotein relative to parent LMP (P-glycoprotein (p-gp)): to a lesser degree than the parent LMP; inhibition of efflux relative to parent LMP (P-glycoprotein (p-gp); in the presence of p-gp inhibitor verapamil): at least one-half lower; relative efflux to influx ratio, reduction versus parent LMP (P-glycoprotein (p-gp); through the enterocyte, less than parent LMP): at least 50% |
| COc1ccc2c(c1)N(C[C@H](C)CN(C)C)c1ccccc1[S+]2[O-] (stereo partly drawn) [Sulfoxide, levomepromazine sulfoxide] | > 10 | no affinity was detected | > 10 | > 10 | − | − | > 10 | > 10 | − | − | sulfoxide detection after LMP ([1]; 25 mg LMP intramuscularly): no sulfoxide was detected; sulfoxide concentrations relative to parent compound ([1]; LMP 50 mg to 350 mg orally daily for one week): 2.5 times; sulfoxide formation after LMP ([1]; LMP intravenously, bioavailability study): sulfoxide formation was detected although to a much lower extent compared to the oral formulation; total serum concentrations relative to parent LMP or NDM LMP ([1]; in vivo): 1.5-3.0 fold; binding affinity to dopamine receptors (in words) (dopamine receptors): essentially no binding affinity; binding affinity to serotonin receptors (in words) (serotonin receptors): essentially no binding affinity; free fraction (less protein binding), relative (Serum protein binding; relative to LMP or NDM LMP): 20 fold; Ki (Adrenergic α1C): 0.193 µM; Ki (Sodium Channel): no affinity was detected |
